This note sets out measurements from patent publication US20010044445A1, “AZOLE INHIBITORS OF CYTOKINE PRODUCTION” (priority 1999, published 2001).

Where two headings read alike, the source gives them in different places.

The subject of data set [1] is IL-4. The data set can be described thus: Measurement of IL-4 Levels in Human T Cells (IL-4 Assay). It is filed as cell-based. As to conditions: Human T cells (HUT 78), phorbol 12-myristate 13-acetate and anti-CD3, 32 hours, ELISA, read-out: IL-4 Inhibition IC50. On the procedure: (§1) Measurement of IL-5 and IL-4 Levels in Human T Cells (IL-4 and IL-5 Assays) Human T cells (HUT 78) were cultured to 1×10^6/mL in RPMI 1640 medium containing 10% fetal calf serum, 100 U/mL penicillin and 100 μg/mL streptomycin. Cultures were then centrifuged, to pellet the cells, and cells resuspended in fresh medium to the same density. 0.2 mL samples of cells were incubated in 96-well plates with 8 μL of various concentrations of compound freshly diluted with the above medium from 100 mM solvent stocks (ethanol or DMSO). Immediately after addition of compound, cells were stimulated by addition of 2 ng/mL phorbol 12-myristate 13-acetate (1 μL of freshly prepared solution of stock (in DMSO) diluted with the above medium added to cells) and 750 μg/mL anti-CD3 (pre-coated at 4° C. overnight). Cell cultures were incubated at 37 OC for 32 hours, then cells pelleted by centrifugation and the supernatants harvested for ELISA. IL-4 and IL-5 ELISA's were performed according to standard procedures. Inhibition was calculated relative to cytokine levels produced from control stimulated cells not treated with compound.
In general terms: An ELISA detects its analyte on a solid surface through an enzyme-linked reagent.

Data set [2] concerns Human peripheral blood mononuclear cells. The experiment in a line: Human Concanavalin-A Proliferation Assay (Con HU Assay). It is filed as cell-based. Particulars: concanavalin-A stimulated human PBMC; for inhibition at 10 µM: concentration 10 μm (in parentheses in the cell); for IC50: tritiated thymidine. A digest of the protocol: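 Proliferation read as tritiated thymidine uptake (0.5 μCi/well, 6 h pulse on day 3) in human PBMC cultured 3 days with 2.5 μg/ml (final) concanavalin-A. Cells, 50,000 per well in supplemented RPMI 1640 with 10% FBS, received compound 15 min before mitogen.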

Data set [3] has as its system IL-5. The experiment in a line: Measurement of IL-5 Levels in Human T Cells (IL-5 Assay). It is filed as cell-based. Particulars: Human T cells (HUT 78), phorbol 12-myristate 13-acetate and anti-CD3, 32 hours, ELISA, read-out: IL-5 Inhibition IC50. The method, then:
as §1

In data set [4] the test system is IL-2. The data set can be described thus: CD3 and CD28 Activation of Peripheral Blood T Cells and Determination of Secreted IL-2 Levels (C28 HU Assay). Particulars: PBMC stimulated with anti-CD3 and anti CD28 mAbs, 24 hour; for IC50: IL-2 secretion; for inhibition at 1 µM: concentration 1 μM (in c2); for inhibition at 1 µM / inhibition at 100 µM: read-out: % Inhibition of IL-2 secretion (At concentrations of 1, 10, or 100 μM); for inhibition at 100 µM: concentration 100 μM (in c2). It is filed as cell-based, Human. The method, then:
Human peripheral blood mononuclear cells were cultured in RPMI 1640 medium supplemented with 10 μg/ml gentamicin, 50 μM 2-mercaptoethanol, 1X MEM non-essential amino acids (Sigma Chemical Co., St. Louis, Mo.), 100 U/ml sodium penicillin G, 100 μg/ml streptomycin sulfate, 2 mM L-glutamine, 1 mM sodium pyruvate (Life Technologies, Grand Island, N.Y.) and 10% fetal bovine serum (Hyclone, Logan, Utah) at 37° C. with 5% CO2.
Human peripheral blood mononuclear cells (PBMC) were isolated by Ficoll-Hypaque seperation. PBMCs were stimulated with a combination of immobilized anti-CD3 and soluble anti CD28 mAbs as described in Faltynek, et al. J. Enzyme Inhibition 1995, 9, 111-122, hereby incorporated by reference. Following a 24 hour incubation, cell supernatants were harvested and IL-2 levels were determined. 100 μl of 5 μg/ml monoclonal murine anti-human IL-2 antibody (Biosource International) in D-PBS was added to 96 well Maxisorb plates (Nunc) and incubated at 4° C. overnight. Plates were washed 4 times with D-PBS containing 0.05% Tween 20 (wash buffer) and blocked with D-PBS containing 1% BSA and 10 mM NaN3 (Diluent/Blocking buffer) for 1-3 hours at room temperature or overnight at 4° C. Plates were washed and recombinant human IL-2 diluted (at 10,000, 5,000, 2,500, 1,250, 625, 312.5, 156.25, 78, 39, 20 pg/ml) in diluent/blocking buffer containing a matched percentage of complete RPMI 1640 medium as the unknown samples. Tissue culture supernatant at various dilutions were added in triplicate at 100 μl/well. Plates were incubated for 2 hours at room temperature and washed 4 times with wash buffer. 100 pl of rabbit anti-human IL-2 (10 μg/ml, Genzyme) was added and incubated for 1 hour at room temperature. The incubation was followed by 4 washes and subsequent addition of 100 pl of 1:2000 dilution of alkaline phosphatase-conjugated goat anti-rabbit F(ab′)2 (Biosource International). After 1 hour the plates were washed 4 times and 100 μl of pNPP (Southern Biotech or Sigma) at 1 mg/ml in buffer was added. Color development was allowed to proceed at room temperature for 20 minutes before addition of 50 μl of 2 N NaOH. Absorbance at 405 nm was determined using a plate reader (Molecular Devices). IL-2 concentrations were calcualted using SoftMax (Molecular Devices) based on the IL-2 standard solutions.

Setting [5] is: Homo sapiens, PBMC, 72 h, 3 days, read-out: % Inhibition of proliferation (at concentrations of 1,10, or 100 μm).
[6] abbreviates: concentration 100 μm (in parentheses in the cell), 3 days.

What is called IC50 is the concentration needed to halve the response being measured. What is called melting point is the temperature of the solid-liquid transition. As for `O=C(Nc1ccc(-n2nc(C(F)(F)F)cc2C(F)(F)F)cc1)c1cccc(F)c1F` [Example 209, N-[4-[3,5-bis(trifluoromethyl)-1H-pyrazol-1-yl]phenyl]-2,3-difluorobenzamide], the melting point was in the range of 147 to 149 °C. Also, in data set [1] (HuT78), the IC50 worked out at 5 nM. Moreover, in data set [2] (setting [5]), the inhibition at 10 µM came out at 99%. In data set [2] (Homo sapiens, PBMC), inhibition was half-maximal at 33 nM (IC50). In addition, the IC50 in data set [3] (HuT78) was determined as 38 nM.

In the case of `O=C(Nc1ccc(-n2nc(C(F)(F)F)cc2C(F)(F)F)cc1)c1ccncc1F` [Example 264, N-[4-[3,5-bis(trifluoromethyl)-1H-pyrazol-1-yl]phenyl]-3-fluoro-4-pyridinecarboxamide], the IC50 in data set [1] (HuT78) worked out at 4.8 nM; in data set [2] (Homo sapiens, PBMC), 42 nM; in data set [3] (HuT78), 22 nM. Also, the inhibition at 10 µM in data set [2] (setting [5]) came to 100%.

On to `Cc1nnsc1C(=O)Nc1ccc(-n2nc(C(F)(F)F)cc2C(F)(F)F)cc1` [Example 250, N-[4-[3,5-bis(trifluoromethyl)-1H-pyrazol-1-yl]phenyl]-4-methyl-1,2,3-thiadizole-5-carboxamide], for which the IC50 in data set [4] was 102 nM; in data set [1], 50 nM; in data set [2], 173 nM; in data set [3], 80 nM. The “% Inhibition of proliferation (at concentrations of 1,10, or 100 μm)” value in data set [2] (setting [6]) was 100(100) %.

`O=C(CCC(=O)c1ccc(F)cc1)Nc1ccc(-n2nc(C(F)(F)F)cc2C(F)(F)F)cc1` [Example 152, N-[4-[3,5-bis(trifluoromethyl)-1H-pyrazol-1-yl]phenyl]-4-fluoro-γ-oxobenzenebutanamide] yielded a melting point of 156 to 158 °C. For the same compound, the inhibition at 1 µM in data set [4] (Homo sapiens) is 3%.

For the compound `O=C(Nc1ccc(Cl)cc1)c1ccc(-n2nc(C(F)(F)F)cc2C(F)(F)F)cc1` [Example 24, N-4-[3,5-bis(trifluoromethyl)-1H-pyrazol-1-yl]-N-(4-chlorophenyl)benzamide], the IC50 in data set [4] amounted to 380 nM; in data set [1] it was 150 nM; in data set [2], 301 nM; in data set [3] it was 150 nM. Besides, the “% Inhibition of proliferation (at concentrations of 1,10, or 100 μm)” value in data set [2] (setting [6]) was 98(100) %.

`Cc1ccnn1-c1ccc(NC(=O)c2ccc(Cl)cc2)cc1` [Example 284, 4-Chloro-N-[4-(5-methyl-1H-pyrazol-1-yl)phenyl]benzamide] yielded a melting point of 189 to 191 °C. Besides, in data set [4] (Homo sapiens), the inhibition at 1 µM was determined as 17%.

The compound `O=C(Nc1ccc(-n2nc(C(F)(F)F)cc2C(F)(F)F)cc1)C1=CCCCC1` [Example 6, N-[4-[3,5-bis(trifluoromethyl)-1H-pyrazol-1-yl]phenyl]-1-cyclohexene-1-carboxamide] registered a melting point of 146 to 148 °C. Moreover, the half-maximal inhibitory concentration (IC50) in data set [1] (HuT78) stood at 8 nM. In addition, in data set [2] (setting [5]), the inhibition at 10 µM came to 100%. This compound also displayed an IC50 in data set [2] (Homo sapiens, PBMC) of 98 nM. Further, the 50% inhibitory concentration (IC50) in data set [3] (HuT78) is 50 nM.

Turning to `C=CC[C@@H]1/C=C(\C)C[C@H](C)C[C@H](OC)[C@H]2O[C@@](O)(C(=O)C(=O)N3CCCC[C@H]3C(=O)O[C@H](/C(C)=C/[C@@H]3CC[C@@H](O)[C@H](OC)C3)[C@H](C)[C@@H](O)CC1=O)[C@H](C)C[C@@H]2OC` [FK-506, tacrolimus, reference compound], the IC50 was found to be 0.7 nM in data set [1] (HuT78) and 0.5 nM in data set [3] (HuT78).

Turning to `Cc1noc(C)c1C(=O)Nc1ccc(-n2nc(C(F)(F)F)cc2C(F)(F)F)cc1` [Example 266, N-[4-[3,5-bis(trifluoromethyl)-1H-pyrazol-1-yl]phenyl]-3,5-dimethyl-4-isoxazolecarboxamide], the melting point fell in the range of 179 to 180 °C. For the same compound, in data set [4] (Homo sapiens), the IC50 was 314 nM and the inhibition at 100 µM is 88%. Besides, the IC50 in data set [1] (HuT78) was found to be 110 nM. The inhibition at 100 µM in data set [2] (Homo sapiens, PBMC, 72 h, concentration 100 μm (in parentheses in the cell), 3 days, read-out: % Inhibition of proliferation (at concentrations of 1,10, or 100 μm)) was determined as 100%. In data set [2] (Homo sapiens, PBMC), the IC50 was found to be 322 nM. For the same compound, the IC50 in data set [3] (HuT78) stood at 150 nM.

In the case of `CC(C)(C)OC(=O)NCCCCCCC(=O)Nc1ccc(-n2nc(C(F)(F)F)cc2C(F)(F)F)cc1` [Example 64, 1,1-dimethylethyl [7-[[4-[3,5-bis(trifluoromethyl)-1H-pyrazol-1-yl]phenyl]amino]-7-oxoheptyl]carbamate], the melting point is 86 to 88 °C. In addition, in data set [4] (Homo sapiens), the IC50 stood at 22300 nM and the inhibition at 100 µM is 86%.
